According to PubChem BioAssay (NCI):
Several values for one entry are separate records, joined by “and”; a condition that tells them apart may be missing. Equal values may be shown once.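 How tested: cells in 96-well plates exposed to compound for 48 hours at five concentrations. Abbreviation: GI50, concentration required for 50% inhibition of growth. At the TGI there is no net growth.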

Key:
Assay in all cases: NCI-60 cell line screen, 48 h
[1] = system: U251 CNS
[2] = system: MDA-N
[3] = system: IGROV1 ovarian
[4] = system: SK-MEL-2 melanoma
[5] = system: SF-295 CNS
[6] = system: UACC-257 melanoma
[7] = system: NCI-H522 lung
[8] = system: PC-3 prostate
[9] = system: KM12 colon
[10] = system: M14 melanoma
[11] = system: EKVX NSCLC
[12] = system: NCI-H460 lung
[13] = system: LOX IMVI melanoma
[14] = system: NCI-H23 lung
[15] = system: HL-60(TB) leukemia
[16] = system: COLO 205 colon
[17] = system: SF-268 CNS
[18] = system: ACHN renal
[19] = system: BT-549 breast
[20] = system: HT29 colon
[21] = system: TK-10 renal
[22] = system: SW-620 colon
[23] = system: DU-145 prostate
[24] = system: OVCAR-5 ovarian
[25] = system: HCT-116 colon
[26] = system: OVCAR-3 ovarian
[27] = system: SK-OV-3 ovarian
[28] = system: CCRF-CEM leukemia
[29] = system: UACC-62 melanoma
[30] = system: A549 NSCLC
[31] = system: MOLT-4 leukemia
[32] = system: SN12C renal
[33] = system: OVCAR-4 ovarian
[34] = system: MDA-MB-231 breast
[35] = system: HOP-62 NSCLC
[36] = system: SNB-19 CNS
[37] = system: NCI/ADR-RES ovarian
[38] = system: HCC-2998 colon
[39] = system: NCI-H226 lung
[40] = system: MDA-MB-435
[41] = system: A498 renal
[42] = system: RPMI-8226 leukemia
[43] = system: HOP-92 NSCLC
[44] = system: HS 578T breast
[45] = system: CAKI-1 renal
[46] = system: UO-31 renal
[47] = system: 786-0 renal
[48] = system: MCF7 breast
[49] = system: SF-539 CNS
[50] = system: T-47D breast
[51] = system: SK-MEL-5 melanoma
[52] = system: SR leukemia
[53] = system: MALME-3M melanoma
[54] = system: SK-MEL-28 melanoma
[55] = system: HCT-15 colon
[56] = system: OVCAR-8 ovarian
[57] = system: RXF 393 renal
[58] = system: K-562 leukemia
[59] = system: SNB-75 CNS

## COC(=O)C1=COC(C)C2CN3CCc4c([nH]c5ccccc45)C3CC12 (stereo not drawn)
[1]
  GI50: 24.6 µM and > 100 µM
  TGI: 81.4 µM and > 100 µM
[2]
  GI50: 31.6 µM and > 100 µM
  TGI: > 100 µM
[3]
  GI50: 22.1 µM and > 100 µM
  TGI: 80.2 µM and > 100 µM
[4]
  GI50: 20 µM and > 100 µM
  TGI: 92.1 µM and > 100 µM
[5]
  GI50: 30.6 µM and 72.9 µM
  TGI: > 100 µM
[6]
  GI50: 34.2 µM and > 100 µM
  TGI: > 100 µM
[7]
  GI50: 23.1 µM and 91.2 µM
  TGI: 78.5 µM and > 100 µM
[8]
  GI50: 24 µM and > 100 µM
  TGI: 95.2 µM and > 100 µM
[9]
  GI50: 17.8 µM and > 100 µM
  TGI: 42.6 µM and > 100 µM
[10]
  GI50: 38.4 µM and > 100 µM
  TGI: > 100 µM
[11]
  GI50: 17.8 µM and > 100 µM
  TGI: 80.9 µM and > 100 µM
[12]
  GI50: 24 µM and > 100 µM
  TGI: 58.8 µM and > 100 µM
[13]
  GI50: 18.5 µM and > 100 µM
  TGI: 45.5 µM and > 100 µM
[14]
  GI50: 33.8 µM and > 100 µM
  TGI: > 100 µM
[15]
  GI50: 17.5 µM and 46.1 µM
  TGI: 41.7 µM and > 100 µM
[16]
  GI50: 18.2 µM and > 100 µM
  TGI: 36.4 µM and > 100 µM
[17]
  TGI: > 100 µM
[18]
  GI50: 32.1 µM and > 100 µM
  TGI: > 100 µM
[19]
  GI50: 28 µM and > 100 µM
  TGI: > 100 µM
[20]
  GI50: 13.8 µM and > 100 µM
  TGI: 27.2 µM and > 100 µM
[21]
  GI50: 27.7 µM and > 100 µM
  TGI: 88.5 µM and > 100 µM
[22]
  GI50: 22.8 µM and > 100 µM
  TGI: 75.7 µM and > 100 µM
[23]
  GI50: 33.7 µM and > 100 µM
  TGI: > 100 µM
[24]
  TGI: > 100 µM
[25]
  GI50: 19 µM and > 100 µM
  TGI: 45.4 µM and > 100 µM
[26]
  GI50: 24.2 µM and > 100 µM
  TGI: > 100 µM
[27]
  TGI: > 100 µM
[28]
  GI50: 20.1 µM and 50.5 µM
  TGI: 58.5 µM and > 100 µM
[29]
  GI50: 24.4 µM and > 100 µM
  TGI: > 100 µM
[30]
  GI50: 37.6 µM and > 100 µM
  TGI: > 100 µM
[31]
  GI50: 11 µM and 28.3 µM
  TGI: 32.7 µM and > 100 µM
[32]
  GI50: 17.9 µM and > 100 µM
  TGI: 38 µM and > 100 µM
[33]
  GI50: 25.4 µM and > 100 µM
  TGI: > 100 µM
[34]
  GI50: 21.2 µM and > 100 µM
  TGI: 65.3 µM and > 100 µM
[35]
  TGI: > 100 µM
[36]
  TGI: > 100 µM
[37]
  GI50: 22.6 µM and > 100 µM
  TGI: > 100 µM
[38]
  GI50: 20.6 µM and > 100 µM
  TGI: 44.7 µM and > 100 µM
[39]
  TGI: 29.4 µM and > 100 µM
[40]
  TGI: > 100 µM
[41]
  GI50: 21.1 µM and 74.9 µM
  TGI: 49.7 µM and > 100 µM
[42]
  GI50: 14.6 µM and 69 µM
  TGI: 56 µM and > 100 µM
[43]
  GI50: 18.3 µM and > 100 µM
  TGI: 77.4 µM and > 100 µM
[44]
  TGI: 65.8 µM and > 100 µM
[45]
  GI50: 21.2 µM and > 100 µM
  TGI: 85.6 µM and > 100 µM
[46]
  GI50: 20.8 µM and > 100 µM
  TGI: > 100 µM
[47]
  GI50: 18.8 µM and 54.8 µM
  TGI: 40.2 µM and > 100 µM
[48]
  GI50: 32.1 µM and > 100 µM
  TGI: > 100 µM
[49]
  GI50: 22.4 µM and > 100 µM
  TGI: 59.5 µM and > 100 µM
[50]
  GI50: 16.6 µM and > 100 µM
  TGI: 67.3 µM and > 100 µM
[51]
  GI50: 22.6 µM and > 100 µM
  TGI: 66.4 µM and > 100 µM
[52]
  GI50: 12.6 µM and 27.8 µM
  TGI: 39.2 µM and > 100 µM
[53]
  GI50: 14.4 µM and 49.5 µM
  TGI: 45.5 µM and > 100 µM
[54]
  GI50: 16.1 µM and > 100 µM
  TGI: 41.8 µM and > 100 µM
[55]
  GI50: 30 µM and > 100 µM
  TGI: > 100 µM
[56]
  GI50: 18.6 µM and > 100 µM
  TGI: > 100 µM
[57]
  GI50: 17.3 µM and > 100 µM
  TGI: 69.9 µM and > 100 µM

## CCc1c[n+]([O-])c(C)cc1[N+](=O)[O-]
[1]
  TGI: > 100 µM
[2]
  TGI: > 100 µM
[3]
  TGI: > 100 µM
[4]
  TGI: > 100 µM
[5]
  TGI: > 100 µM
[6]
  TGI: > 100 µM
[7]
  TGI: > 100 µM
[8]
  TGI: > 100 µM
[58]
  TGI: > 100 µM
[9]
  TGI: > 100 µM
[10]
  TGI: > 100 µM
[11]
  TGI: > 100 µM
[12]
  TGI: 63.5 µM
[13]
  TGI: > 100 µM
[14]
  TGI: > 100 µM
[15]
  TGI: > 100 µM
[16]
  TGI: 29.6 µM
[17]
  TGI: > 100 µM
[18]
  TGI: 47.3 µM
[19]
  TGI: > 100 µM
[20]
  TGI: > 100 µM
[21]
  TGI: > 100 µM
[22]
  TGI: > 100 µM
[23]
  TGI: > 100 µM
[24]
  TGI: > 100 µM
[25]
  TGI: > 100 µM
[26]
  TGI: > 100 µM
[59]
  TGI: > 100 µM
[27]
  TGI: > 100 µM
[28]
  TGI: > 100 µM
[29]
  TGI: > 100 µM
[30]
  TGI: > 100 µM
[31]
  TGI: > 100 µM
[32]
  TGI: > 100 µM
[34]
  TGI: 80.7 µM
[35]
  TGI: > 100 µM
[36]
  TGI: > 100 µM
[37]
  TGI: > 100 µM
[38]
  TGI: 40.5 µM
[40]
  TGI: > 100 µM
[41]
  TGI: > 100 µM
[42]
  TGI: > 100 µM
[43]
  TGI: > 100 µM
[44]
  TGI: > 100 µM
[45]
  TGI: > 100 µM
[46]
  TGI: > 100 µM
[47]
  TGI: > 100 µM
[48]
  TGI: > 100 µM
[49]
  TGI: > 100 µM
[50]
  TGI: > 100 µM
[51]
  TGI: > 100 µM
[52]
  TGI: > 100 µM
[53]
  TGI: 97.3 µM
[54]
  TGI: > 100 µM
[55]
  TGI: 40.1 µM
[56]
  TGI: > 100 µM
[57]
  TGI: 60.9 µM
